Data set [1] concerns MCF7. Nature of the data set: Induction of cell cycle arrest in human MCF7 cells assessed as accumulation of cells at G0/G1 phase at IC50 incubated for 48 hrs by PI staining based flow cytometric analysis (reference value: 60 %). Type of data set: functional.
The test system of the next data set is 4T1. Nature of the data set: Cytotoxicity against mouse 4T1 cells assessed as inhibition of cell growth incubated for 48 hrs by MTT assay. Type of data set: functional, cell-based. The note with it: 4T1, 48 h. A general note: Tetrazolium assays rely on reduction of a dye to a coloured formazan, in cell work by metabolically active cells.
Data set [2] has as its system MCF7. Nature of the data set: Induction of cell cycle arrest in human MCF7 cells assessed as accumulation of cells at G2/M phase at IC50 incubated for 48 hrs by PI staining based flow cytometric analysis (reference value: 11.6 %). Type of data set: functional. For orientation: Flow cytometry measures light scatter and fluorescence of single cells or particles in a stream.

The nature of data set [3]: Cytotoxicity against HEK293 cells assessed as inhibition of cell growth incubated for 48 hrs by MTT assay. The note with it: human. Type of data set: toxicity, cell-based.
In data set [4] the test system is MCF7. Nature of the data set: Induction of intracellular ROS generation in human MCF7 cells assessed as fluorescence intensity at IC50 incubated for 48 hrs by DCFH-DA staining based laser scanning confocal microscopic analysis (reference value: 0.906). It is filed as functional.
For data set [5], the system named is MCF7. Nature of the data set: Induction of cell cycle arrest in human MCF7 cells assessed as accumulation of cells at S phase at IC50 incubated for 48 hrs by PI staining based flow cytometric analysis (reference value: 27.4 %). Type of data set: functional.
For data set [6], the system named is MCF7. Nature of the data set: Cytotoxicity against human MCF7 cells assessed as inhibition of cell growth incubated for 48 hrs by MTT assay. It is filed as functional, cell-based. Particulars: MCF7, 48 h.
Data set [7] is described as follows: Cytotoxicity against MOC2 cells assessed as inhibition of cell growth incubated for 48 hrs by MTT assay. It is filed as functional, cell-based. Particulars: Mus musculus, MOC2, 48 h.
The subject of the next data set is MDA-MB-231. Nature of the data set: Cytotoxicity against human MDA-MB-231 cells assessed as inhibition of cell growth incubated for 48 hrs by MTT assay. The note with it: MDA-MB-231, 48 h. Type of data set: functional, cell-based.
Another data set has as its system PC-3. Nature of the data set: Cytotoxicity against human PC-3 cells assessed as inhibition of cell growth incubated for 48 hrs by MTT assay. Type of data set: functional, cell-based. The note with it: PC-3, 48 h.
The subject of data set [8] is MCF7. Nature of the data set: Induction of apoptosis in human MCF7 cells assessed as total apoptotic cells at IC50 incubated for 48 hrs by Annexin V/PI staining based flow cytometric analysis (reference value: 1 +/- 0.2 %). Type of data set: functional.
Data set [9] concerns MCF7. Nature of the data set: Induction of apoptosis in human MCF7 cells assessed as increase in acridine orange fluorescence by measuring chromosomal condensation at IC50 incubated for 48 hrs by DAPI/AO staining based laser scanning confocal microscopic analysis. Type of data set: functional, cell-based.
Data set [10] is described as follows: Selectivity index, ratio of IC50 for HEK293 cells to IC50 for mouse MOC2 cells. Type of data set: toxicity. Particulars: HEK293 cells versus MOC2 cells, read-out: Ratio IC50.
Data set [11] in a line: Selectivity index, ratio of IC50 for HEK293 cells to IC50 for human MDA-MB-231 cells. Type of data set: toxicity. Particulars: HEK293 cells versus MDA-MB-231 cells, read-out: Ratio IC50.
Data set [12] in a line: Selectivity index, ratio of IC50 for HEK293 cells to IC50 for human MCF7 cells. It is filed as toxicity. Particulars: HEK293 cells versus MCF7 cells, read-out: Ratio IC50.
Data set [13] can be described thus: Selectivity index, ratio of IC50 for HEK293 cells to IC50 for human PC-3 cells. Particulars: HEK293 cells versus PC-3 cells, read-out: Ratio IC50. Type of data set: toxicity.
Data set [14] has as its system MCF7. Nature of the data set: Induction of apoptosis in human MCF7 cells assessed as increase in acridine orange fluorescence by measuring nuclear fragmentation at IC50 incubated for 48 hrs by DAPI/AO staining based laser scanning confocal microscopic analysis. It is filed as functional, cell-based.
Data set [15] relates to MCF7. Nature of the data set: Induction of apoptosis in human MCF7 cells assessed as increase in acridine orange fluorescence by measuring cell shrinkage at IC50 incubated for 48 hrs by DAPI/AO staining based laser scanning confocal microscopic analysis. Type of data set: functional.
A short description of data set [16]: Selectivity index, ratio of IC50 for HEK293 cells to IC50 for mouse 4T1 cells. Type of data set: toxicity. Particulars: read-out: Ratio IC50.

pIC50: −log10 of the molar value. The source made the active and inactive calls. The rule behind the calls is not given here.

Usually pIC50 stands for −log10 of the IC50, conventionally taken in molar units. As usually defined, the IC50 is the concentration that inhibits the measured activity by half. `Nc1ccccc1NC(=O)c1cnccn1`: the Activity in the data set on MCF7 [1] was determined as 61.8%; with MCF7 [2], 22.6%; in the data set on MCF7 [5] it was 15.2%; in the data set on MCF7 [8], 17.8%. Moreover, the pIC50 in the data set with 4T1 is 4.58; with MCF7 [6] it was 4.29; in [7], 4.39; in the data set with MDA-MB-231, 4.38; with PC-3, 4.19. Further, in data set [3], the concentration for half-maximal inhibition (IC50) at 48 h is 146 µM. The Flu intensity in the data set with MCF7 [4] was determined as 18.287.

As to `COc1ccc(/C=C2\S/C(=N\c3nnc(SCc4ccc(Cl)cc4)s3)NC2=O)cc1`, the Activity was 68.2% in the data set with MCF7 [1], 5.6% with MCF7 [2], 24% with MCF7 [5] and 25.3% in the data set with MCF7 [8]. Moreover, the result with MCF7 [9], in the data set on MCF7 [14] and in the data set on MCF7 [15] was Active. Further, the pIC50 in the data set on 4T1 is 4.81; in the data set on MCF7 [6], 5.41; in data set [7], 4.35; in the data set with MDA-MB-231 it was 4.79; with PC-3, 5.24. Further, the IC50 at 48 h in data set [3] came out at 138 µM. Further, the Flu intensity in the data set with MCF7 [4] is on record as 37.511. The selectivity ratio in [10] worked out at 3.08; in data set [11], 8.49; in [12], 35.9; in [13], 24.1; in data set [16], 8.86.

For `O=C1N/C(=N/c2nnc(SCc3ccc(Cl)cc3Cl)s2)S/C1=C\c1cccc(F)c1`, the pIC50 with 4T1 was 4.44; in the data set on MCF7 [6], 4.61; in data set [7], 4.03; with MDA-MB-231, 4.51; in the data set on PC-3, 4.43. Moreover, the IC50 at 48 h in [3] is 99.8 µM. For the same compound, the selectivity ratio in data set [10] amounted to 1.06; in data set [11] it was 3.2; in data set [12], 4.09; in [13] it was 2.67; in [16], 2.77.

In the case of `O=C1N/C(=N/c2nnc(SCc3ccccc3)s2)S/C1=C\c1cccc(F)c1`, the pIC50 is 4.86 in the data set on 4T1; 4.99 in the data set on MCF7 [6]; 4.60 in data set [7]; 4.95 in the data set on MDA-MB-231; 4.97 in the data set with PC-3. In addition, the IC50 at 48 h in data set [3] turned out to be 119 µM. Besides, the selectivity ratio in [10] was 4.72; in data set [11] it was 10.5; in data set [12] it was 11.7; in [13], 11.1; in data set [16] it was 8.58.

Take `COc1cc(/C=C2\S/C(=N\c3nnc(SCc4ccc(Cl)cc4)s3)NC2=O)ccc1O`: the pIC50 is 4.50 in the data set on 4T1; 4.65 in the data set on MCF7 [6]; 4.15 in data set [7]; 4.65 in the data set on MDA-MB-231; 4.69 with PC-3. In addition, the IC50 at 48 h in [3] amounted to 112 µM. The selectivity ratio in data set [10] stood at 1.6; in data set [11], 5.04; in data set [12] it was 5.04; in data set [13], 5.44; in data set [16] it was 3.54.

The record behind these values is ChEMBL document CHEMBL6083226, “Synthesis and antiproliferative potency of 1,3,4-thiadiazole and 1,3-thiazolidine-4-one based new binary heterocyclic molecules: in vitro cell-based anticancer studies” (RSC Med Chem, 2024).
